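How tested: cells in 96-well plates exposed to compound for 48 hours at five concentrations. GI50: concentration for 50% inhibition of growth.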 Activity calls are given as the source filed them. Rule as the data show it: active = GI50 up to about 1.1 µM and inactive = higher.
Key:
Experiment in all cases: DTP human tumour cell line panel, 48 h
HL-60 = system: HL-60
OVCAR-4 = system: OVCAR-4
MDA-N = system: MDA-N
UO-31 = system: UO-31
SN12C = system: SN12C
OVCAR-8 = system: OVCAR-8
NCI/ADR-RES = system: NCI/ADR-RES
HCT-116 = system: HCT-116
SK-MEL-5 = system: SK-MEL-5
NCI-H23 = system: NCI-H23
OVCAR-3 = system: OVCAR-3
SR = system: SR
OVCAR-5 = system: OVCAR-5
U-251 = system: U-251
MDA-MB-231 = system: MDA-MB-231
HCT-15 = system: HCT-15
RXF 393 = system: RXF 393
SNB-19 = system: SNB-19
PC-3 = system: PC-3
SF-295 = system: SF-295
BT-549 = system: BT-549
SNB-75 = system: SNB-75
NCI-H460 = system: NCI-H460
SW-620 = system: SW-620
SF-268 = system: SF-268
SF-539 = system: SF-539
HOP-92 = system: HOP-92
MCF7 = system: MCF7
ACHN = system: ACHN
A549 = system: A549
Hs-578T = system: Hs-578T
M14 = system: M14
CCRF-CEM = system: CCRF-CEM
Malme-3M = system: Malme-3M
NCI-H522 = system: NCI-H522
786-0 = system: 786-0
KM12 = system: KM12
MDA-MB-435 = system: MDA-MB-435
SK-MEL-28 = system: SK-MEL-28
SK-OV-3 = system: SK-OV-3
SK-MEL-2 = system: SK-MEL-2
IGROV-1 = system: IGROV-1
COLO 205 = system: COLO 205
TK-10 = system: TK-10
UACC-257 = system: UACC-257
RPMI-8226 = system: RPMI-8226
EKVX = system: EKVX
DU-145 = system: DU-145
LOX IMVI = system: LOX IMVI
CAKI-1 = system: CAKI-1
NCI-H226 = system: NCI-H226
MOLT-4 = system: MOLT-4
UACC-62 = system: UACC-62
T47D = system: T47D
K562 = system: K562
A498 = system: A498
HOP-62 = system: HOP-62
HT-29 = system: HT-29

O=C(O)CN1C(=O)OC(c2ccccc2)C1=O (stereo not drawn)
GI50 (HL-60): > 100 µM (inactive)
GI50 (OVCAR-4): > 100 µM (inactive)
GI50 (MDA-N): > 100 µM (inactive)
GI50 (UO-31): > 100 µM (inactive)
GI50 (SN12C): > 100 µM (inactive)
GI50 (OVCAR-8): > 100 µM (inactive)
GI50 (NCI/ADR-RES): > 100 µM (inactive)
GI50 (HCT-116): > 100 µM (inactive)
GI50 (SK-MEL-5): > 100 µM (inactive)
GI50 (NCI-H23): > 100 µM (inactive)
GI50 (OVCAR-3): > 100 µM (inactive)
GI50 (SR): > 100 µM (inactive)
GI50 (OVCAR-5): > 100 µM (inactive)
GI50 (U-251): > 100 µM (inactive)
GI50 (MDA-MB-231): > 100 µM (inactive)
GI50 (HCT-15): > 100 µM
GI50 (RXF 393): > 100 µM (inactive)
GI50 (SNB-19): > 100 µM (inactive)
GI50 (PC-3): > 100 µM (inactive)
GI50 (SF-295): > 100 µM (inactive)
GI50 (BT-549): > 100 µM (inactive)
GI50 (SNB-75): > 100 µM (inactive)
GI50 (NCI-H460): > 100 µM (inactive)
GI50 (SW-620): > 100 µM (inactive)
GI50 (SF-268): > 100 µM (inactive)
GI50 (SF-539): > 100 µM (inactive)
GI50 (HOP-92): > 100 µM (inactive)
GI50 (MCF7): > 100 µM (inactive)
GI50 (ACHN): > 100 µM (inactive)
GI50 (A549): > 100 µM (inactive)
GI50 (Hs-578T): > 100 µM (inactive)
GI50 (M14): > 100 µM (inactive)
GI50 (CCRF-CEM): > 100 µM (inactive)
GI50 (Malme-3M): > 100 µM (inactive)
GI50 (NCI-H522): > 100 µM (inactive)
GI50 (786-0): > 100 µM (inactive)
GI50 (KM12): > 100 µM (inactive)
GI50 (MDA-MB-435): > 100 µM (inactive)
GI50 (SK-MEL-28): > 100 µM (inactive)
GI50 (SK-OV-3): > 100 µM (inactive)
GI50 (SK-MEL-2): > 100 µM (inactive)
GI50 (IGROV-1): > 100 µM (inactive)
GI50 (COLO 205): > 100 µM (inactive)
GI50 (TK-10): > 100 µM (inactive)
GI50 (UACC-257): > 100 µM (inactive)
GI50 (RPMI-8226): > 100 µM (inactive)
GI50 (EKVX): > 100 µM (inactive)
GI50 (DU-145): > 100 µM (inactive)
GI50 (LOX IMVI): > 100 µM (inactive)
GI50 (CAKI-1): > 100 µM (inactive)
GI50 (NCI-H226): > 100 µM (inactive)
GI50 (MOLT-4): > 100 µM (inactive)
GI50 (UACC-62): > 100 µM (inactive)
GI50 (T47D): > 100 µM (inactive)
GI50 (K562): > 100 µM (inactive)
GI50 (A498): > 100 µM (inactive)
GI50 (HOP-62): > 100 µM (inactive)
GI50 (HT-29): > 100 µM (inactive)

— ChEMBL document CHEMBL1201862, “PubChem BioAssay data set” (2004)
